This note sets out measurements from the NIST ThermoML archive (doi:10.1021/acs.jced.6b00037).

± gives the expanded uncertainty stated by the source.

Data set [1] can be described thus: Molar enthalpy of transition or fusion. Conditions: Crystal; DSC.
For data set [2] the following is noted: Crystal; DSC.

`CCOC(=O)c1ccc(N)cc1` [ethyl 4-aminobenzoate]: the “Molar enthalpy of transition or fusion” value in data set [1] is 5.24 ± 0.237 kcal/mol. Besides, in data set [2], the Triple point temperature stood at 363.2 ± 1.2 K.
